Measurements from article PMC11513923, “Discovery of ZLC491 as a Potent, Selective, and Orally Bioavailable CDK12/13 PROTAC Degrader” (Journal of Medicinal Chemistry, 2024).

What was measured:
CDK12/13 = test: Immunoblotting of CDK12/13 in MDA-MB-231 cells (time course, negative control, series comparison); format: cell-based, human; settings: 1 μM
Description: To further characterize the compound, we determined the half-degradation concentration (DC50) values of ZLC491 in MDA-MB-231 cells. […] We also treated MDA-MB-231 cells with 1 μM ZLC491 at various time points.
(A) Immunoblotting of CDK12 and CDK13 in MDA-MB-231 cells treated with increasing concentrations of ZLC491 for 15 h (left). Percent remaining CDK12 and CDK13 proteins were plotted for DC50 determination (right). Protein levels were quantified using ImageJ and normalized to corresponding α-tubulin, then plotted using Graphpad Prism 8.0. The data were representative of three independent experiments; (B) immunoblotting of CDK12 and CDK13 proteins in MDA-MB-231 cells treated with ZLC491 for various time points; immunoblotting of CDK12 and CDK13 in HCC38 (C) and MDA-MB-436 (D) cells treated with increasing concentrations of ZLC491 for 15 h. α-Tubulin was used as a loading control. TEXT PRINTED IN THE PICTURE: (A) ZLC491: MDA-MB-231: CDK12 DC50 = 0.032μM; MDA-MB-231: CDK13 DC50 = 0.028μM DOUBTS OF THE COPYIST ABOUT THIS PICTURE: ZLC491, CDK12 DC50: 0.032 read from small print, the digits 3 and 2 are uncertain / ZLC491, CDK13 DC50: 0.028 read from small print, the last digit may be 8, 6 or 3
Figure 4 ZLC491 induced CDK12/13 degradation in a CRBN- and proteasome-dependent fashion. […]

[1] = test system: MDA-MB-231 xenograft tumors; test: Histology of tumors (H&E staining, TUNEL IHC) in MDA-MB-231 xenograft model; format: in vivo, mouse; settings: 100 and 200 mg/kg orally, 5 days; particularly at 200 mg/kg
Description: We further performed pharmacodynamic studies of ZLC491 in an MDA-MB-231 xenografted mouse model. ZLC491 was orally administrated at two doses of 100 and 200 mg/kg, respectively, for 5 consecutive days (Figure 7A). Tumor tissues were harvested on day 5 and subjected to Western blot analysis. […] Additionally, we conducted further histological analysis on the tumors following ZLC491 treatment.
Figure 7 ZLC491 depleted CDK12 and CDK13 proteins in vivo. (A) Study design of pharmacodynamics assessment on target engagement of ZLC491 in the MDA-MB-231 xenograft model; (B) immunoblotting of CDK12, CDK13, and α-tubulin in tissue lysate of MDA-MB-231 xenografts model after ZLC491 treatment; (C) protein levels were quantified using ImageJ and normalized to corresponding α-tubulin, then plotted using GraphPad Prism 8.0; (D) immunohistochemistry (IHC) analysis on the tumors by H&E staining and TUNEL assays; (E) TUNEL histology scores were analyzed and plotted by GraphPad Prism 8.0; (F) body weight change during the treatment.
H&E staining of formalin-fixed paraffin embedded (FFPE) tissue sections was performed using Leica Autostainer XL as per manufacturer’s protocol. […] Cells which were intensely stained for DAB pigment were considered to be apoptotic and they were quantified as numbers per 10 high power field (hpf, 400× magnification).

CDK12 = CDK12 (Homo sapiens, UniProt Q9NYV4); test: CDK12 degradation in MDA-MB-231 cells by immunoblotting; format: cell-based; parameters: Immunoblotting of CDK12 and CDK13 in MDA-MB-231 cells treated with increasing concentrations of ZLC491 for 15 h; endogenous in cells; host or cells: MDA-MB-231
CDK12, sequence (Q9NYV4 whole entry): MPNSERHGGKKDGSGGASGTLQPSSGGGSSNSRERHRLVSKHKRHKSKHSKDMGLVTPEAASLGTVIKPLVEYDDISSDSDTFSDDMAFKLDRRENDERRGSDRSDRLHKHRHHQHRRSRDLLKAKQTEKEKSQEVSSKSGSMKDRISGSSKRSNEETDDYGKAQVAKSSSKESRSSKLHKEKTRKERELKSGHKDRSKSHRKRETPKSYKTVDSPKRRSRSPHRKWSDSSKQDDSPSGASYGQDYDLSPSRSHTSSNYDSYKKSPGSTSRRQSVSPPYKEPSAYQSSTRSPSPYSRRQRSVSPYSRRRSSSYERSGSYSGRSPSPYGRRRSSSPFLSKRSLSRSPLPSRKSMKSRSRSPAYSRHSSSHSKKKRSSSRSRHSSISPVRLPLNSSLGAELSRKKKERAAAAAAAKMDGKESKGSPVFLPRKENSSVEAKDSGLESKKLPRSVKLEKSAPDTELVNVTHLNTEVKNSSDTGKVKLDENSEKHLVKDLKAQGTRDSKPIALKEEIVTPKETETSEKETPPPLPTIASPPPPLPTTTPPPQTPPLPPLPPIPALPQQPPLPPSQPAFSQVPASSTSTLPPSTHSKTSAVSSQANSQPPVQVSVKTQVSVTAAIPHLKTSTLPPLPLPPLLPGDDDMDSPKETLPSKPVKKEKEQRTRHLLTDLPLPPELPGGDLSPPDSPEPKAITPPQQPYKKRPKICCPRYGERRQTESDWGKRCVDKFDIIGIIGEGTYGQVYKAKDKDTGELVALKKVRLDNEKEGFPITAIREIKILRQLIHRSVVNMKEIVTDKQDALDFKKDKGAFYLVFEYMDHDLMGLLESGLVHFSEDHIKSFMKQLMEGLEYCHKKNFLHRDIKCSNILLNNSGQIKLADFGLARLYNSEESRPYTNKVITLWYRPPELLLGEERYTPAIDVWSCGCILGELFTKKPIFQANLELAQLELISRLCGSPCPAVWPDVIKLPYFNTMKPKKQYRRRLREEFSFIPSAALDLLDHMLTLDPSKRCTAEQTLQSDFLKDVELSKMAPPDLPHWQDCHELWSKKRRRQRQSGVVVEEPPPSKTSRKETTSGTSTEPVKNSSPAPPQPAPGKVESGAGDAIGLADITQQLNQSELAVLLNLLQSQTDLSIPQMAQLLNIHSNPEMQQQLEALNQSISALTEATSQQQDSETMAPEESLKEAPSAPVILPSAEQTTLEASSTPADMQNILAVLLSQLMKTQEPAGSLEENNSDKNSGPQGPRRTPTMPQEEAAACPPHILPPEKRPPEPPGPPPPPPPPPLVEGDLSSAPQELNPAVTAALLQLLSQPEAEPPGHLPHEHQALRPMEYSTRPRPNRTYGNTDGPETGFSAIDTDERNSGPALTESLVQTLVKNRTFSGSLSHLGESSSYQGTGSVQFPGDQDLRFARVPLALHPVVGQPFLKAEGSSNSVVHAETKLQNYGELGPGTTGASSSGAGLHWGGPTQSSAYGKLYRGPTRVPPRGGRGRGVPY
CDK12, sequence (O75909 whole entry partner): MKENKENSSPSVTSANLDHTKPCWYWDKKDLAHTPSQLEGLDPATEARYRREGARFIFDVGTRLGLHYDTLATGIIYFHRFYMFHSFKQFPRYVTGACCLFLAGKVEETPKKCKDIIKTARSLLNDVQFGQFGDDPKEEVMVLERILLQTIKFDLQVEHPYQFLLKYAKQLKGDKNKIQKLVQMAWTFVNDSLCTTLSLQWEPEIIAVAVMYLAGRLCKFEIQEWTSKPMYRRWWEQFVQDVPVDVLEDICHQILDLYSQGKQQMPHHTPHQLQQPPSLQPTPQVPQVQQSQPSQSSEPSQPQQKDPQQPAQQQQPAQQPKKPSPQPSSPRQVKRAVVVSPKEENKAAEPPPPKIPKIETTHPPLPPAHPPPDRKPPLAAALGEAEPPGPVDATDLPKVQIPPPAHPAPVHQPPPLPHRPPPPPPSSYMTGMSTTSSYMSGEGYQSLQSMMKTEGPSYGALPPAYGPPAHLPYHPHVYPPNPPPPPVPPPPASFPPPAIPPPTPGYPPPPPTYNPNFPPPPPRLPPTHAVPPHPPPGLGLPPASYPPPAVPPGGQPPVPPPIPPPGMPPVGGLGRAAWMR
In short: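 MDA-MB-231 cells treated with ZLC491 at increasing concentrations for 15 h (screening at 0.3 μM; time course at 1 μM); SDS lysates immunoblotted, band intensities normalised to α-tubulin. DC50 taken from percent remaining protein versus concentration; representative of three independent experiments.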

N#Cc1ccc(N[C@H]2CC[C@H](N(C(=O)NCc3ccccc3)c3ccc(N4CCN(C5CCN(c6cc7c(cc6F)C(=O)N(C6CCC(=O)NC6=O)C7=O)CC5)CC4)cc3)CC2)nc1 (some centres unmarked) [ZLC491, 3-Benzyl-1-((1r,4r)-4-((5-cyanopyridin-2-yl)amino)cyclohexyl)-1-(4-(4-(1-(2-(2,6-dioxopiperidin-3-yl)-6-fluoro-1,3-dioxoisoindolin-5-yl)piperidin-4-yl)piperazin-1-yl)phenyl)urea]
time at which significant reduction of CDK12/13 is observed (CDK12/13): ≤ 4 h
apoptosis in tumors (H&E staining, TUNEL IHC) [1]: marked apoptosis and increased TUNEL signaling
Protein Degradation (%DMSO control, 0.3 μM) CDK12 (CDK12; MDA-MB-231 cells, 0.3 μM, 15 h, immunoblotting, normalized against α-tubulin): 85%
DC50 (CDK12; MDA-MB-231 cells, 15 h): 32 nM
Degradation rates of CDK12 at 0.3 μM (CDK12; supplementary CSV, 0.3 μM): 85%
